From patent publication US20230210999A1, “TARGETED PROTEASE DEGRADATION (TED) PLATFORM” (EUBULUS BIOTHERAPEUTICS INC., priority 2020, published 2023)
Where two headings read alike, the source gives them in different places.

Assays:
Format in all cases: cell-based, human
Daudi cells = assay: Cell proliferation experiment, Daudi; details: Daudi cells, read-out: Inhibitory activity IC50 on Daudi
Experimental: (§1) Reagents: RPMI-1640 medium, McCoy's 5A medium, IMDM medium, MEM medium, L-15 medium, fetal bovine serum. Penicillin-Streptomycin double antibody, trypsin, etc., 2-mercaptoethanol, NEAA, pyruvate, etc.
(§2) The cells were cultured in conventional ways, and the cells should be passed at least 2 generations before plating. Cells at the logarithmic growth phase were collected, prepared into single cell suspensions and counted. The concentration of cells was adjusted to the desired concentration, and cells were inoculated into a 96-well cell culture plate at 100 μl per well. 100 μL of complete medium of the test compound were added to each well, set up 2 duplicate wells for each concentration, and diluted with a 5-fold gradient, and continued to culture for 72 h. All cells were subjected to IC50 test for corresponding samples. The experimental results are shown in Test Example 4.
(§3) The fluorescence intensity of each well was detected using the Alarm blue method, and IC50 was calculated.
(§4) IC50 was calculated according to the following formula:
(§5) Y=Max+(Min−Max)/[1+(X/IC50)×Slope]
(§6) wherein Min, Max and Slope represent the minimum, maximum and slope respectively.

MV4;11 cells = assay: Cell proliferation experiment (Alamar blue, 72 h), MV4;11; details: read-out: Inhibitory activity IC50 on MV4;11
Experimental: as §1, §2, §3, §4, §5, §6

NCIH82 cells = assay: Cell proliferation experiment, NCI-H82; details: read-out: Inhibitory activity IC50 on NCI-H82
Experimental: as §1, §2, §3, §4, §5, §6

[1] = Homo sapiens, MV4-11, MV4;11 cells
[2] = Homo sapiens, NCI-H82, NCI-H82 cells

| IC50 (Daudi cells; Homo sapiens, Daudi) [nM] | IC50 (MV4;11 cells; [1]) [nM] | IC50 (NCIH82 cells; [2]) [nM] | IC50 (Daudi cells) [nM] | IC50 (MV4;11 cells; MV4;11 cells) [nM] | IC50 (NCIH82 cells; NCI-H82 cells) [nM] | SMILES |
| --- | --- | --- | --- | --- | --- | --- |
| > 1000 | > 1000 | > 1000 | – | – | – | O=C1CCC(N2Cc3cc(NC(=O)CCNCCCOCCCCn4cc([C@]5(Cc6cccc(Nc7nccs7)n6)CC[C@@H](Oc6cccc(Cl)c6F)CC5)nn4)ccc3C2=O)C(=O)N1 (stereo partly drawn) [UB-181001] |
| > 1000 | > 1000 | > 1000 | – | – | – | O=C1CCC(N2Cc3c(NC(=O)CCCCCCCCCNCCn4cc([C@]5(Cc6cccc(Nc7nccs7)n6)CC[C@@H](Oc6cccc(Cl)c6F)CC5)nn4)cccc3C2=O)C(=O)N1 (stereo partly drawn) [UB-181002] |
| > 1000 | 100 to 1000 | > 1000 | – | – | – | O=C1CCC(N2Cc3c(NC(=O)CCNCCOCCOCCn4cc([C@]5(Cc6cccc(Nc7nccs7)n6)CC[C@@H](Oc6cccc(Cl)c6F)CC5)nn4)cccc3C2=O)C(=O)N1 (stereo partly drawn) [UB-181003] |
| > 1000 | – | – | – | > 1000 | > 1000 | O=C1CCC(N2Cc3cc(NC(=O)CCOCCOCC(O)COCCn4cc(-c5ccc(Nc6ncc7c(n6)-c6ccc(Cl)cc6C(c6c(F)cccc6F)=NC7)cc5)nn4)ccc3C2=O)C(=O)N1 (stereo not drawn) [UB-181005] |
| > 1000 | > 1000 | > 1000 | – | – | – | O=C1CCC(N2Cc3cc(NC(=O)CCOCCOCCOCCN[C@H]4CC[C@@H](NC(=O)c5ccc(Nc6ncc7c(n6)-c6ccc(Cl)cc6C(c6c(F)cccc6F)=NC7)cc5)CC4)ccc3C2=O)C(=O)N1 (stereo partly drawn) [UB-181006] |
| 100 to 1000 | 100 to 1000 | > 1000 | – | – | – | NC(COCCCCCCCC(=O)Nc1ccc2c(c1)CN(C1CCC(=O)NC1=O)C2=O)Cn1cc(-c2ccc(Nc3ncc4c(n3)-c3ccc(Cl)cc3C(c3c(F)cccc3F)=NC4)cc2)nn1 (stereo not drawn) [UB-181007] |
| 100 to 1000 | 100 to 1000 | > 1000 | – | – | – | O=C1CCC(N2Cc3cc(NC(=O)CNCCCOCCCCCn4cc(-c5ccc(Nc6ncc7c(n6)-c6ccc(Cl)cc6C(c6c(F)cccc6F)=NC7)cc5)nn4)ccc3C2=O)C(=O)N1 (stereo not drawn) [UB-181008] |
| > 1000 | 100 to 1000 | > 1000 | – | – | – | O=C1CCC(N2Cc3cc(NC(=O)CNCCCOCCCCCn4cc([C@]5(Cc6cccc(Nc7nccs7)n6)CC[C@@H](Oc6cccc(Cl)c6F)CC5)nn4)ccc3C2=O)C(=O)N1 (stereo partly drawn) [UB-181009] |
| > 1000 | 100 to 1000 | > 1000 | – | – | – | O=C1CCC(N2Cc3cc(C#CCCOCCOCCOCCNC4CCC(n5cc(-c6ccc(Nc7ncc8c(n7)-c7ccc(Cl)cc7C(c7c(F)cccc7F)=NC8)cc6)nn5)CC4)ccc3C2=O)C(=O)N1 (stereo not drawn) [UB-181010] |
| 10 to 100 | 100 to 1000 | > 1000 | – | – | – | O=C1CCC(N2Cc3cc(NC(=O)CNCCCCOCCCCn4cc(-c5ccc(Nc6ncc7c(n6)-c6ccc(Cl)cc6C(c6c(F)cccc6F)=NC7)cc5)nn4)ccc3C2=O)C(=O)N1 (stereo not drawn) [UB-181011] |
| > 1000 | 100 to 1000 | > 1000 | – | – | – | O=C1CCC(N2Cc3cc(C#CCCNCCOCCOCCn4cc(-c5ccc(Nc6ncc7c(n6)-c6ccc(Cl)cc6C(c6c(F)cccc6F)=NC7)cc5)nn4)ccc3C2=O)C(=O)N1 (stereo not drawn) [UB-181012] |
| > 1000 | 100 to 1000 | > 1000 | – | – | – | O=C1CCC(N2Cc3c(NC(=O)CNCCCCOCCCCNC(=O)[C@]4(Cc5cccc(Nc6nccs6)n5)CC[C@@H](Oc5cccc(Cl)c5F)CC4)cccc3C2=O)C(=O)N1 (stereo partly drawn) [UB-181013] |
| > 1000 | 100 to 1000 | > 1000 | – | – | – | O=C1CCC(N2Cc3c(C#CCCNCCOCCOCCNC(=O)[C@]4(Cc5cccc(Nc6nccs6)n5)CC[C@@H](Oc5cccc(Cl)c5F)CC4)cccc3C2=O)C(=O)N1 (stereo partly drawn) [UB-181014] |
| > 1000 | 100 to 1000 | > 1000 | – | – | – | O=C1CCC(N2Cc3cc(C#CCCNCCOCCOCCNC(=O)[C@]4(Cc5cccc(Nc6nccs6)n5)CC[C@@H](Oc5cccc(Cl)c5F)CC4)ccc3C2=O)C(=O)N1 (stereo partly drawn) [UB-181015] |
| > 1000 | 100 to 1000 | > 1000 | – | – | – | O=C1CCC(N2Cc3cc(NC(=O)CCOCCOCCNCCn4cc(-c5ccc(Nc6ncc7c(n6)-c6ccc(Cl)cc6C(c6c(F)cccc6F)=NC7)cc5)nn4)ccc3C2=O)C(=O)N1 (stereo not drawn) [UB-181016] |
| > 1000 | 100 to 1000 | > 1000 | – | – | – | O=C1CCC(N2Cc3cc(NC(=O)CNCCCOCCCCCNC(=O)[C@]4(Cc5cccc(Nc6nccs6)n5)CC[C@@H](Oc5cccc(Cl)c5F)CC4)ccc3C2=O)C(=O)N1 (stereo partly drawn) [UB-181017] |
| > 1000 | > 1000 | > 1000 | – | – | – | O=C1CCC(N2Cc3cc(NC(=O)CCOCCOCCNCCNC(=O)[C@]4(Cc5cccc(Nc6nccs6)n5)CC[C@@H](Oc5cccc(Cl)c5F)CC4)ccc3C2=O)C(=O)N1 (stereo partly drawn) [UB-181018] |
| > 1000 | 100 to 1000 | > 1000 | – | – | – | O=C1CCC(N2Cc3cc(NC(=O)CNCCCCOCCCCNC(=O)[C@]4(Cc5cccc(Nc6nccs6)n5)CC[C@@H](Oc5cccc(Cl)c5F)CC4)ccc3C2=O)C(=O)N1 (stereo partly drawn) [UB-181019] |
| > 1000 | 100 to 1000 | > 1000 | – | – | – | O=C1CCC(N2Cc3cc(NC(=O)CNCCCOCCOCCn4cc(-c5ccc(Nc6ncc7c(n6)-c6ccc(Cl)cc6C(c6c(F)cccc6F)=NC7)cc5)nn4)ccc3C2=O)C(=O)N1 (stereo not drawn) [UB-181020] |
| > 1000 | > 1000 | > 1000 | – | – | – | O=C1CCC(N2Cc3c(C#CCCNCCOCCOCCn4cc(-c5ccc(Nc6ncc7c(n6)-c6ccc(Cl)cc6C(c6c(F)cccc6F)=NC7)cc5)nn4)cccc3C2=O)C(=O)N1 (stereo not drawn) [UB-181027] |

The remaining lines, values behind:

| SMILES | IC50 (Daudi cells; Homo sapiens, Daudi) [nM] | IC50 (MV4;11 cells; [1]) [nM] | IC50 (NCIH82 cells; [2]) [nM] | IC50 (Daudi cells) [nM] | IC50 (MV4;11 cells; MV4;11 cells) [nM] | IC50 (NCIH82 cells; NCI-H82 cells) [nM] |
| --- | --- | --- | --- | --- | --- | --- |
| O=C1CCC(N2Cc3cc(NC(=O)CNCCOCCOCCOCCn4cc(-c5ccc(Nc6ncc7c(n6)-c6ccc(Cl)cc6C(c6c(F)cccc6F)=NC7)cc5)nn4)ccc3C2=O)C(=O)N1 (stereo not drawn) [UB-180976] | > 1000 | 100 to 1000 | > 1000 | – | – | – |
| O=C1CCC(N2Cc3cc(NC(=O)CCOCCOCCN[C@H]4CC[C@@H](n5cc(-c6ccc(Nc7ncc8c(n7)-c7ccc(Cl)cc7C(c7c(F)cccc7F)=NC8)cc6)nn5)CC4)ccc3C2=O)C(=O)N1 (stereo partly drawn) [UB-180981] | > 1000 | > 1000 | > 1000 | – | – | – |
| O=C1CCC(N2Cc3cc(NC(=O)CCCCCCCNCCCn4cc(-c5ccc(Nc6ncc7c(n6)-c6ccc(Cl)cc6C(c6c(F)cccc6F)=NC7)cc5)nn4)ccc3C2=O)C(=O)N1 (stereo not drawn) [UB-180982] | > 1000 | 100 to 1000 | > 1000 | – | – | – |
| O=C1CCC(N2Cc3cc(NC(=O)CCCCCCCNCCn4cc(-c5ccc(Nc6ncc7c(n6)-c6ccc(Cl)cc6C(c6c(F)cccc6F)=NC7)cc5)nn4)ccc3C2=O)C(=O)N1 (stereo not drawn) [UB-180983] | 100 to 1000 | 10 to 100 | 100 to 1000 | – | – | – |
| O=C1CCC(N2Cc3c(NC(=O)CCCCCCCNCCCn4cc(-c5ccc(Nc6ncc7c(n6)-c6ccc(Cl)cc6C(c6c(F)cccc6F)=NC7)cc5)nn4)cccc3C2=O)C(=O)N1 (stereo not drawn) [UB-180987] | > 1000 | > 1000 | > 1000 | – | – | – |
| O=C1CCC(N2Cc3c(NC(=O)CCCCCCCN[C@H]4CC[C@@H](n5cc(-c6ccc(Nc7ncc8c(n7)-c7ccc(Cl)cc7C(c7c(F)cccc7F)=NC8)cc6)nn5)CC4)cccc3C2=O)C(=O)N1 (stereo partly drawn) [UB-180988] | > 1000 | > 1000 | > 1000 | – | – | – |
| O=C1CCC(N2Cc3cc(NC(=O)CCCCCCCN[C@H]4CC[C@@H](n5cc(-c6ccc(Nc7ncc8c(n7)-c7ccc(Cl)cc7C(c7c(F)cccc7F)=NC8)cc6)nn5)CC4)ccc3C2=O)C(=O)N1 (stereo partly drawn) [UB-180989] | > 1000 | > 1000 | > 1000 | – | – | – |
| O=C1CCC(N2Cc3c(NC(=O)CCCCCCCCCNCCn4cc(-c5ccc(Nc6ncc7c(n6)-c6ccc(Cl)cc6C(c6c(F)cccc6F)=NC7)cc5)nn4)cccc3C2=O)C(=O)N1 (stereo not drawn) [UB-180990] | > 1000 | 100 to 1000 | > 1000 | – | – | – |
| O=C1CCC(N2Cc3cc(NC(=O)CCNCCOCCOCCn4cc(-c5ccc(Nc6ncc7c(n6)-c6ccc(Cl)cc6C(c6c(F)cccc6F)=NC7)cc5)nn4)ccc3C2=O)C(=O)N1 (stereo not drawn) [UB-180991] | > 1000 | 100 to 1000 | > 1000 | – | – | – |
| O=C1CCC(N2Cc3cc(NC(=O)CCNCCOCCOCCn4cc([C@]5(Cc6cccc(Nc7nccs7)n6)CC[C@@H](Oc6cccc(Cl)c6F)CC5)nn4)ccc3C2=O)C(=O)N1 (stereo partly drawn) [UB-180994] | > 1000 | 100 to 1000 | > 1000 | – | – | – |
| O=C1CCC(N2Cc3cc(NC(=O)CCCCCCCCCNCCn4cc([C@]5(Cc6cccc(Nc7nccs7)n6)CC[C@@H](Oc6cccc(Cl)c6F)CC5)nn4)ccc3C2=O)C(=O)N1 (stereo partly drawn) [UB-180995] | > 1000 | > 1000 | > 1000 | – | – | – |
| O=C1CCC(N2Cc3c(NC(=O)CCCCCCCCCN[C@H]4CC[C@@H](n5cc(-c6ccc(Nc7ncc8c(n7)-c7ccc(Cl)cc7C(c7c(F)cccc7F)=NC8)cc6)nn5)CC4)cccc3C2=O)C(=O)N1 (stereo partly drawn) [UB-180996] | > 1000 | > 1000 | > 1000 | – | – | – |
| O=C1CCC(N2Cc3c(NC(=O)CCCCCCCCCN[C@H]4CC[C@@H](n5cc(-c6ccc(Nc7ncc8c(n7)-c7ccc(Cl)cc7C(c7c(F)cccc7F)=NC8)cc6)nn5)CC4)cccc3C2=O)C(=O)N1 (stereo partly drawn) [UB-180997] | – | – | – | > 1000 | > 1000 | > 1000 |
| O=C1CCC(N2Cc3cc(NC(=O)CCNCCCOCCCCn4cc(-c5ccc(Nc6ncc7c(n6)-c6ccc(Cl)cc6C(c6c(F)cccc6F)=NC7)cc5)nn4)ccc3C2=O)C(=O)N1 (stereo not drawn) [UB-181000] | > 1000 | > 1000 | > 1000 | – | – | – |
